Reference: US20200038474A1, “COMPOSITION, USE AND METHOD FOR TREATING NEURODEGENERATIVE DISEASES” (FUNDAÇÃO BUTANTAN, priority 2016, published 2020)

Key:
[1] = system: Experimental Autoimmune Encephalomyelitis; test: Experimental Autoimmune Encephalomyelitis (EAE) induced by MOG35-55, clinical signs scored 0 to 5; assay type: in vivo, female C57BL/6 mice
[2] = system: κ opioid receptor; conditions: literature report; cited from earlier work

Sequence: EFSPENCQGESQPC [Crotalphine]
- animals that reached clinical score 2 ([1]; single dose of 50 μg/kg on the 5th day after immunization, 100% of saline controls reached a score between 3 and 5): 43%
- severity of clinical signs ([1]; single dose of 50 μg/kg on the 5th day after immunization, vs saline control, n=8, p<0.05): significantly decreased the severity of clinical signs
- motor impairment in animal model of multiple sclerosis ([1]; summary statement): partially reverse the motor impairment
- antinociception [2]: induces antinociception mediated by κ opioid receptor activation
